How the values were obtained:
Assay type in all cases: in vivo, human
[1] = system: erythropoietin (EPO); test: Phase 1b study: pharmacodynamics, Baseline-unadjusted serum EPO concentration
Method: PK and EPO Sample. For each vadadustat treatment group, blood samples for vadadustat PK (and its metabolites) and EPO were collected at the following time points: Day 1: predose, and at 1, 2, 3, 4, 5, 8, and 11 hours post dose; Day 2: 24 hours (−2 hours) post Day 1 dose; Day 6: blood sample for EPO analysis only was collected predose on Day 6; Day 8: predose, and at 1, 2, 3, 4, 5, 8, 11 hours post dose, Day 10 or EOT: predose. For the ESA treatment group, blood samples for analysis of EPO were collected at the following time points: Day 1: predose, and at 0.25, 1, 2, 3, 4, 5, 8, and 11 hours post dose; Day 2: 24 hours (−2 hours) post Day 1 dose.
PD Sampling. For all vadadustat and ESA treatment groups, in addition to EPO, blood samples for Hb, reticulocytes and iron indices for PD analyses were collected on Day 1, Day 6 and Day 10. Hepcidin were collected predose on Day 1, Day 6, and Day 10 for PD analysis.
Secondary Endpoints. For each treatment group, PD parameters included, but were not limited to, as deemed appropriate: hepcidin, erythropoietin (EPO), iron indices (iron, ferritin, total iron-binding capacity [TIBC], TSAT), Hb, and reticulocytes.
The summary of serum concentration of Baseline-unadjusted EPO by time for the vadadustat treatment groups in the PK population are presented in FIGS. 1a-11b and FIGS. 12a-12b. The summary of PD parameters for Baseline-unadjusted serum EPO concentration for vadadustat treatment groups by dosing days for the PK population are summarized in Table 2.

[2] = system: erythropoietin (EPO); test: Phase 2 study, Main Study: pharmacodynamics, Baseline-Unadjusted serum EPO concentration
Method: PK/PD Endpoints. An exposure-response analysis of vadadustat and PD measures were conducted as deemed appropriate. The PK parameters included (but were not limited to) the following: area under concentration-time curve from dosing to last measurable concentration (AUClast), area under concentration-time curve from dosing to infinity (AUCinf), Cmax, apparent total body clearance (CL/F), apparent volume of distribution (Vd/F), and terminal half-life (t1/2). The PD parameters included (but were not limited to) the following: EPO, reticulocytes, iron, ferritin, TIBC, and hepcidin.
PK population: included all randomized subjects who received study drug (vadadustat or epoetin alfa) and had enough drug concentrations to estimate AUC and Cmax. Analysis of this population was based on the dose amount taken at the date of PK sampling for the vadadustat group.
PD parameters for serum EPO concentration are presented by epoetin alfa stratification for vadadustat treatment groups in Table 7, Table 8a and Table 8b (baseline-unadjusted) and Table 9, Table 10a and Table 10b (baseline-adjusted).

[3] = system: total iron binding capacity (TIBC); test: Phase 2a clinical trials in stage 3, 4, or 5 CKD patients: iron-related parameters
[4] = Vada 150 mg, Week 11, High Epoetin Alfa Stratum >90 to <300 U/kg/week
[5] = Vada 150 mg, Week 11, Low Epoetin Alfa Stratum ≤90 U/kg/week
[6] = Vada 300 mg, Week 1 + 1, High Epoetin Alfa Stratum >90 to <300 U/kg/week
[7] = Vada 300 mg, Week 1 + 1, Low Epoetin Alfa Stratum ≤90 U/kg/week
[8] = Vada 300 mg, Week 1, High Epoetin Alfa Stratum >90 to <300 U/kg/week
[9] = Vada 300 mg, Week 1, Low Epoetin Alfa Stratum ≤90 U/kg/week
[10] = Vada 300 mg, Week 11, High Epoetin Alfa Stratum >90 to <300 U/kg/week
[11] = Vada 300 mg, Week 11, Low Epoetin Alfa Stratum ≤90 U/kg/week
[12] = Vada 300 mg, Week 13, High Epoetin Alfa Stratum >90 to <300 U/kg/week
[13] = Vada 450 mg, Week 1 + 1, High Epoetin Alfa Stratum >90 to <300 U/kg/week
[14] = Vada 450 mg, Week 1 + 1, Low Epoetin Alfa Stratum ≤90 U/kg/week
[15] = Vada 450 mg, Week 1, High Epoetin Alfa Stratum >90 to <300 U/kg/week
[16] = Vada 450 mg, Week 1, Low Epoetin Alfa Stratum ≤90 U/kg/week
[17] = Vada 450 mg, Week 11, High Epoetin Alfa Stratum >90 to <300 U/kg/week
[18] = Vada 450 mg, Week 11, Low Epoetin Alfa Stratum ≤90 U/kg/week
[19] = Vada 450 mg, Week 13, Low Epoetin Alfa Stratum ≤90 U/kg/week
[20] = Vada 600 mg, Week 1 + 1, High Epoetin Alfa Stratum >90 to <300 U/kg/week
[21] = Vada 600 mg, Week 1, High Epoetin Alfa Stratum >90 to <300 U/kg/week
[22] = Vada 600 mg, Week 11, High Epoetin Alfa Stratum >90 to <300 U/kg/week
[23] = Vada 600 mg, Week 11, Low Epoetin Alfa Stratum ≤90 U/kg/week
[24] = Vada 600 mg, Week 13, High Epoetin Alfa Stratum >90 to <300 U/kg/week
[25] = Vada 600 mg, Week 13, Low Epoetin Alfa Stratum ≤90 U/kg/week
[26] = Vada 750 mg, Week 11, High Epoetin Alfa Stratum >90 to <300 U/kg/week
[27] = Vada 750 mg, Week 11, Low Epoetin Alfa Stratum ≤90 U/kg/week
[28] = Vada 750 mg, Week 13, High Epoetin Alfa Stratum >90 to <300 U/kg/week
[29] = Vada 750 mg, Week 13, Low Epoetin Alfa Stratum ≤90 U/kg/week
[30] = Vada 900 mg, Week 11, High Epoetin Alfa Stratum >90 to <300 U/kg/week
[31] = Vada 900 mg, Week 11, Low Epoetin Alfa Stratum ≤90 U/kg/week

O=C(O)CNC(=O)c1ncc(-c2cccc(Cl)c2)cc1O [Compound 1, {[5-(3-chlorophenyl)-3-hydroxypyridine-2-carbonyl]amino}acetic acid]
Baseline-Unadjusted serum EPO Tmax, Median ([1]; Vada 600 mg QD, Day 1): 10.09 h
Baseline-unadjusted serum EPO AUC0-11, Mean (SD) ([1]; Vada 600 mg QD, Day 1): 319 (150) h · mU/mL
Baseline-Unadjusted serum EPO Tmax, Median ([1]; Vada 600 mg QD, Day 8): 4.50 h
Baseline-unadjusted serum EPO AUC0-11, Mean (SD) ([1]; Vada 600 mg QD, Day 8 (AUClast)): 410 (286) h · mU/mL
Baseline-Unadjusted serum EPO Tmax, Median ([1]; Vada 750 mg QD, Day 1): 10.94 h
Baseline-unadjusted serum EPO AUC0-11, Mean (SD) ([1]; Vada 750 mg QD, Day 1): 569 (623) h · mU/mL
Baseline-Unadjusted serum EPO Tmax, Median ([1]; Vada 750 mg QD, Day 8): 5.01 h
Baseline-unadjusted serum EPO AUC0-11, Mean (SD) ([1]; Vada 750 mg QD, Day 8 (AUClast)): 677 (533) h · mU/mL
Baseline-Unadjusted serum EPO Tmax, Median ([1]; Vada 900 mg QD, Day 1): 10.00 h
Baseline-unadjusted serum EPO AUC0-11, Mean (SD) ([1]; Vada 900 mg QD, Day 1): 455 (438) h · mU/mL
Baseline-Unadjusted serum EPO Tmax, Median ([1]; Vada 900 mg QD, Day 8): 10.00 h
Baseline-unadjusted serum EPO AUC0-11, Mean (SD) ([1]; Vada 900 mg QD, Day 8 (AUClast)): 981 (1854) h · mU/mL
Baseline-Unadjusted serum EPO AUC0-5, Geometric Mean [2, 4]: 143.0 µg·h/mL
Baseline-Unadjusted serum EPO Cmax, Geometric Mean [2, 4]: 39.0 µg/mL
Baseline-Unadjusted serum EPO Tmax, Median [2, 4]: 1.63 h
Baseline-Unadjusted serum EPO AUC0-5, Geometric Mean [2, 5]: 37.6 µg·h/mL
Baseline-Unadjusted serum EPO Cmax, Geometric Mean [2, 5]: 10.7 µg/mL
Baseline-Unadjusted serum EPO Tmax, Median [2, 5]: 4.78 h
Baseline-Unadjusted serum EPO AUC0-5, Geometric Mean [2, 6]: 74.9 µg·h/mL
Baseline-Unadjusted serum EPO Cmax, Geometric Mean [2, 6]: 20.5 µg/mL
Baseline-Unadjusted serum EPO Tmax, Median [2, 6]: 2.02 h
Baseline-Unadjusted serum EPO AUC0-5, Geometric Mean [2, 7]: 65.7 µg·h/mL
Baseline-Unadjusted serum EPO Cmax, Geometric Mean [2, 7]: 19.3 µg/mL
Baseline-Unadjusted serum EPO Tmax, Median [2, 7]: 2.75 h
Baseline-Unadjusted serum EPO AUC0-5, Geometric Mean [2, 8]: 56.0 µg·h/mL
Baseline-Unadjusted serum EPO Cmax, Geometric Mean [2, 8]: 17.5 µg/mL
Baseline-Unadjusted serum EPO Tmax, Median [2, 8]: 2.00 h
Baseline-Unadjusted serum EPO AUC0-5, Geometric Mean [2, 9]: 58.5 µg·h/mL
Baseline-Unadjusted serum EPO Cmax, Geometric Mean [2, 9]: 17.6 µg/mL
Baseline-Unadjusted serum EPO Tmax, Median [2, 9]: 4.50 h
Baseline-Unadjusted serum EPO AUC0-5, Geometric Mean [2, 10]: 84.4 µg·h/mL
Baseline-Unadjusted serum EPO Cmax, Geometric Mean [2, 10]: 23.5 µg/mL
Baseline-Unadjusted serum EPO Tmax, Median [2, 10]: 0.97 h
Baseline-Unadjusted serum EPO AUC0-5, Geometric Mean [2, 11]: 65.2 µg·h/mL
Baseline-Unadjusted serum EPO Cmax, Geometric Mean [2, 11]: 20.0 µg/mL
Baseline-Unadjusted serum EPO Tmax, Median [2, 11]: 3.29 h
Baseline-Unadjusted serum EPO AUC0-5, Geometric Mean [2, 12]: 125 µg·h/mL
Baseline-Unadjusted serum EPO Cmax, Geometric Mean [2, 12]: 39.2 µg/mL
Baseline-Unadjusted serum EPO Tmax, Median [2, 12]: 0 h
Baseline-Unadjusted serum EPO AUC0-5, Geometric Mean [2, 13]: 61.6 µg·h/mL
Baseline-Unadjusted serum EPO Cmax, Geometric Mean [2, 13]: 18.1 µg/mL
Baseline-Unadjusted serum EPO Tmax, Median [2, 13]: 0 h
Baseline-Unadjusted serum EPO AUC0-5, Geometric Mean [2, 14]: 80.2 µg·h/mL
Baseline-Unadjusted serum EPO Cmax, Geometric Mean [2, 14]: 23.9 µg/mL
Baseline-Unadjusted serum EPO Tmax, Median [2, 14]: 4.51 h
Baseline-Unadjusted serum EPO AUC0-5, Geometric Mean [2, 15]: 79.9 µg·h/mL
Baseline-Unadjusted serum EPO Cmax, Geometric Mean [2, 15]: 23.4 µg/mL
Baseline-Unadjusted serum EPO Tmax, Median [2, 15]: 4.53 h
Baseline-Unadjusted serum EPO AUC0-5, Geometric Mean [2, 16]: 76.4 µg·h/mL
Baseline-Unadjusted serum EPO Cmax, Geometric Mean [2, 16]: 25.5 µg/mL
Baseline-Unadjusted serum EPO Tmax, Median [2, 16]: 4.50 h
Baseline-Unadjusted serum EPO AUC0-5, Geometric Mean [2, 17]: 97.5 µg·h/mL
Baseline-Unadjusted serum EPO Cmax, Geometric Mean [2, 17]: 24.9 µg/mL
Baseline-Unadjusted serum EPO Tmax, Median [2, 17]: 0.88 h
Baseline-Unadjusted serum EPO AUC0-5, Geometric Mean [2, 18]: 65.1 µg·h/mL
Baseline-Unadjusted serum EPO Cmax, Geometric Mean [2, 18]: 17.7 µg/mL
Baseline-Unadjusted serum EPO Tmax, Median [2, 18]: 2.08 h
Baseline-Unadjusted serum EPO AUC0-5, Geometric Mean [2, 19]: 88.4 µg·h/mL
Baseline-Unadjusted serum EPO Cmax, Geometric Mean [2, 19]: 28.8 µg/mL
Baseline-Unadjusted serum EPO Tmax, Median [2, 19]: 3.94 h
Baseline-Unadjusted serum EPO AUC0-5, Geometric Mean [2, 20]: 89.9 µg·h/mL
Baseline-Unadjusted serum EPO Cmax, Geometric Mean [2, 20]: 27.2 µg/mL
Baseline-Unadjusted serum EPO Tmax, Median [2, 20]: 2.47 h
Baseline-Unadjusted serum EPO AUC0-5, Geometric Mean [2, 21]: 102.0 µg·h/mL
Baseline-Unadjusted serum EPO Cmax, Geometric Mean [2, 21]: 33.2 µg/mL
Baseline-Unadjusted serum EPO Tmax, Median [2, 21]: 0 h
Baseline-Unadjusted serum EPO AUC0-5, Geometric Mean [2, 22]: 83.2 µg·h/mL
Baseline-Unadjusted serum EPO Cmax, Geometric Mean [2, 22]: 23.4 µg/mL
Baseline-Unadjusted serum EPO Tmax, Median [2, 22]: 0.92 h
Baseline-Unadjusted serum EPO AUC0-5, Geometric Mean [2, 23]: 53.8 µg·h/mL
Baseline-Unadjusted serum EPO Cmax, Geometric Mean [2, 23]: 18.5 µg/mL
Baseline-Unadjusted serum EPO Tmax, Median [2, 23]: 4.50 h
Baseline-Unadjusted serum EPO AUC0-5, Geometric Mean [2, 24]: 44.0 µg·h/mL
Baseline-Unadjusted serum EPO Cmax, Geometric Mean [2, 24]: 49.9 µg/mL
Baseline-Unadjusted serum EPO Tmax, Median [2, 24]: 4.63 h
Baseline-Unadjusted serum EPO AUC0-5, Geometric Mean [2, 25]: 59.4 µg·h/mL
Baseline-Unadjusted serum EPO Cmax, Geometric Mean [2, 25]: 20.7 µg/mL
Baseline-Unadjusted serum EPO Tmax, Median [2, 25]: 7.08 h
Baseline-Unadjusted serum EPO AUC0-5, Geometric Mean [2, 26]: 84.6 µg·h/mL
Baseline-Unadjusted serum EPO Cmax, Geometric Mean [2, 26]: 21.9 µg/mL
Baseline-Unadjusted serum EPO Tmax, Median [2, 26]: 4.06 h
Baseline-Unadjusted serum EPO AUC0-5, Geometric Mean [2, 27]: 41.3 µg·h/mL
Baseline-Unadjusted serum EPO Cmax, Geometric Mean [2, 27]: 12.5 µg/mL
Baseline-Unadjusted serum EPO Tmax, Median [2, 27]: 4.50 h
Baseline-Unadjusted serum EPO AUC0-5, Geometric Mean [2, 28]: 42.9 µg·h/mL
Baseline-Unadjusted serum EPO Cmax, Geometric Mean [2, 28]: 14.1 µg/mL
Baseline-Unadjusted serum EPO Tmax, Median [2, 28]: 0 h
Baseline-Unadjusted serum EPO AUC0-5, Geometric Mean [2, 29]: 40.8 µg·h/mL
Baseline-Unadjusted serum EPO Cmax, Geometric Mean [2, 29]: 13.2 µg/mL
Baseline-Unadjusted serum EPO Tmax, Median [2, 29]: 4.50 h
Baseline-Unadjusted serum EPO AUC0-5, Geometric Mean [2, 30]: 96.5 µg·h/mL
Baseline-Unadjusted serum EPO Cmax, Geometric Mean [2, 30]: 30.2 µg/mL
Baseline-Unadjusted serum EPO Tmax, Median [2, 30]: 0 h
Baseline-Unadjusted serum EPO AUC0-5, Geometric Mean [2, 31]: 81.0 µg·h/mL
Baseline-Unadjusted serum EPO Cmax, Geometric Mean [2, 31]: 24.4 µg/mL
Baseline-Unadjusted serum EPO Tmax, Median [2, 31]: 0 h
TIBC versus dose [3]: dose-related increase
serum iron levels with the increase in TIBC [3]: not associated with an increase in serum iron levels
transferrin saturation (TSAT) [3]: decrease
total iron binding capacity (TIBC) levels ([3]; 6 weeks post administration, compared to placebo treated patients): increase

— patent publication US12697330B2, “Therapeutic methods using vadadustat” (Akebia Therapeutics, Inc., priority 2021, dated 2026)
